The target in one assay is T1, Bovine LOX (Bos taurus, UniProt P33072).
T1 sequence (P33072 170-418): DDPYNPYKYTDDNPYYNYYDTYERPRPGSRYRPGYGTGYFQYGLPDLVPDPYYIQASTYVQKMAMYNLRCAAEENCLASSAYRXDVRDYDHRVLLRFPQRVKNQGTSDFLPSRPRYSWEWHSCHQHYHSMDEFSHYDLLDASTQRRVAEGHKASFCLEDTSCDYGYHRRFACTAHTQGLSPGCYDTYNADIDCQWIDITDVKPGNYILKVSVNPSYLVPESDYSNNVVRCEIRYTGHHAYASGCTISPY
The experiment in a line: LOX inhibition, hydrogen peroxide Amplex Red oxidation assay. In kind it is biochemical. To be noted: 2 h incubation with enzyme at 37 °C. The method, then: (§1) LOX and LOXL protein family members can be acquired as recombinant active proteins from commercial sources, or extracted from animal tissues like bovine aorta, tendons, pig skin; or prepared from cell cultures. The inhibitory effects of the compounds of the present invention were tested against the given LOX or LOXL preparation using a method based on the detection of hydrogen peroxide with an Amplex Red oxidation assay [Zhou et al, 1997]. The assay was developed using either 384 or 96 well format. Briefly, in a standard black, clear bottom 384 well plate assay 25 µL of a dilution of any of the isoenzymes and orthologues in 1.2 M urea, 50 mM sodium borate buffer (pH 8.2) were added into each well in the presence of […] and 0.5 mM pargyline (to inhibit SSAO and MAO-B and MAO-A, respectively; not necessary if the enzyme is from a recombinant or purified form). […] of a reaction mixture containing twice the KM concentration of putrescine (Sigma Aldrich, e.g. 20 mM for LOX and LOXL1 or 10 mM for LOXL2 and 4 mM for LOXL3 and LOXL4), 120 µM Amplex Red (Thermo Fisher Scientific) and 1.5 U/mL horseradish peroxidase (Sigma Aldrich) prepared in 1.2 M urea, 50 mM sodium borate buffer (pH 8.2) were then added to the corresponding wells. The above volumes were doubled in the case of 96 wells plate. The fluorescence (RFU) was read every 2.5 min for 30 min at 37 °C, excitation 544 nm and emission 590 (Optima; BMG labtech). The slope/min of the kinetics for each well was calculated using MARS data analysis software (BMG labtech) and this value was used to deduce the IC50 value (Dotmatics). The ability of the inventive compounds to inhibit the amine oxidase activity of LOX and other family members is shown in Table 5.

For the next assay, the target named is T2, LOXL2 (Homo sapiens, UniProt Q9Y4K0).
T2 sequence (Q9Y4K0 26-774): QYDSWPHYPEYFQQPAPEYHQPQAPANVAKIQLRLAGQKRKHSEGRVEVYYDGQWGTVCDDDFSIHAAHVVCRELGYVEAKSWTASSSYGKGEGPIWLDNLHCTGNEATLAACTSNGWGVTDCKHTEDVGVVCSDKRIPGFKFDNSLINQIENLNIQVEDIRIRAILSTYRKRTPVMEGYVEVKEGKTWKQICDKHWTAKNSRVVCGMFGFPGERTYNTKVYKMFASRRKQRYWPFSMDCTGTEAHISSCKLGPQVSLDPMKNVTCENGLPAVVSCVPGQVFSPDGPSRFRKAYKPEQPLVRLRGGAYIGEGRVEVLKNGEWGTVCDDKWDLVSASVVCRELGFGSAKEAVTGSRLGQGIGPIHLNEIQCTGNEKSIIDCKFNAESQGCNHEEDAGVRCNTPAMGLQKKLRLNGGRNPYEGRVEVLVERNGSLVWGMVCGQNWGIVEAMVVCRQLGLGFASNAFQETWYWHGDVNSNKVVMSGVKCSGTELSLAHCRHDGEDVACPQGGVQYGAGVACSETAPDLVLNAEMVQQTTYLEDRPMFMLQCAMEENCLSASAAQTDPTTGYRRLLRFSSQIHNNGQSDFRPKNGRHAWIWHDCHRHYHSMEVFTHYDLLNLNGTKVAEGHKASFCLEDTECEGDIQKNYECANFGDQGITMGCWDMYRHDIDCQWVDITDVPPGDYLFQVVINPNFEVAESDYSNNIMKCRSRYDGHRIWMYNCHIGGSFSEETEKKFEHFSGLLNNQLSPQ
The assay can be described thus: LOXL2 inhibition, Amplex Red oxidation assay. In kind it is biochemical. To be noted: 2 h incubation with enzyme at 37 °C; read-out: Human LOXL2 Activity IC50. The method, then:
as §1

In general, IC50 refers to the point on the concentration scale where inhibition reaches its midpoint. As for `NC/C(=C\F)CS(=O)(=O)c1cccc(-c2nccs2)c1` [Compound 16, (E)-3-fluoro-2-(((3-(thiazol-2-yl)phenyl)sulfonyl)methyl)prop-2-en-1-amine], the IC50 against Bovine LOX and at LOXL2 was below 2000 nM each time. Turning to `NC/C(=C\F)CS(=O)(=O)c1cccc2cccnc12` [Compound 7, (E)-3-fluoro-2-((quinolin-8-ylsulfonyl)methyl)prop-2-en-1-amine], the IC50 is below 10000 nM on Bovine LOX and below 2000 nM at LOXL2. For `NC/C(=C\F)CS(=O)(=O)c1cccc(C(N)=O)c1` [Compound 27, (E)-3-((2-(aminomethyl)-3-fluoroallyl)sulfonyl)benzamide] the same measures were below 2000 nM and below 2000 nM. As to `NC/C(=C/F)CS(=O)(=O)c1ccccc1` [Compound 37, (Z)-3-fluoro-2-((phenylsulfonyl)methyl)prop-2-en-1-amine], the half-inhibitory concentration (IC50) against Bovine LOX and at LOXL2 was below 2000 nM in each case. Regarding `Cc1ccc(S(=O)(=O)C/C(=C/F)CN)cc1Cl` [Compound 8, (E)-2-(((3-chloro-4-methylphenyl)sulfonyl)methyl)-3-fluoroprop-2-en-1-amine], the IC50 against Bovine LOX and at LOXL2 was below 2000 nM each time. Consider `Cc1ccc(S(=O)(=O)C/C(=C/F)CN)cc1` [Compound 4, (E)-3-fluoro-2-(tosylmethyl)prop-2-en-1-amine], for which the IC50 at Bovine LOX was below 5000 nM; at LOXL2, below 2000 nM.

With `Cc1ccc(S(=O)(=O)C/C(=C/F)CN)cc1C#N` [Compound 29, (E)-5-((2-(aminomethyl)-3-fluoroallyl)sulfonyl)-2-methylbenzonitrile], the IC50 against Bovine LOX and on LOXL2 was below 2000 nM each time.

As for `CC(C)c1cccc(S(=O)(=O)C/C(=C/F)CN)c1` [Compound 11, (E)-3-fluoro-2-(((3-isopropylphenyl)sulfonyl)methyl)prop-2-en-1-amine], the IC50 against Bovine LOX and on LOXL2 was below 2000 nM in each case. With `CS(=O)(=O)c1ccc(S(=O)(=O)C/C(=C/F)CN)cc1` [Compound 21, (E)-3-fluoro-2-(((4-(methylsulfonyl)phenyl)sulfonyl)methyl)prop-2-en-1-amine], the IC50 against Bovine LOX and on LOXL2 was below 2000 nM in each case. For the compound `[2H]c1c([2H])c([2H])c(S(=O)(=O)C/C(=C/F)CN)c([2H])c1[2H]` [Compound 30, (E)-3-fluoro-2-(((phenyl-d5)sulfonyl)methyl)prop-2-en-1-amine], the IC50 against Bovine LOX and on LOXL2 was below 5000 nM each time. In the case of `NC/C(=C\F)CS(=O)(=O)c1cccc(Cl)c1` [Compound 19, (E)-2-(((3-chlorophenyl)sulfonyl)methyl)-3-fluoroprop-2-en-1-amine], the IC50 against Bovine LOX and at LOXL2 was below 2000 nM throughout.

As to `NC/C(=C\F)CS(=O)(=O)c1cccc(F)c1` [Compound 5, (E)-3-fluoro-2-(((3-fluorophenyl)sulfonyl)methyl)prop-2-en-1-amine], the IC50 at Bovine LOX and on LOXL2 was below 2000 nM in each case. `NC/C(=C\F)CS(=O)(=O)c1cccc([N+](=O)[O-])c1` [Compound 13, (E)-3-fluoro-2-(((3-nitrophenyl)sulfonyl)methyl)prop-2-en-1-amine]: the IC50 at Bovine LOX and at LOXL2 was below 2000 nM throughout. Regarding `Cc1ccc(S(=O)(=O)C/C(=C/F)CN)cc1C` [Compound 9, (E)-2-(((3,4-dimethylphenyl)sulfonyl)methyl)-3-fluoroprop-2-en-1-amine], the IC50 at Bovine LOX and at LOXL2 was below 2000 nM throughout.

In the case of `COc1cccc(S(=O)(=O)C/C(=C/F)CN)c1` [Compound 24, (E)-3-fluoro-2-(((3-methoxyphenyl)sulfonyl)methyl)prop-2-en-1-amine], the IC50 on Bovine LOX and on LOXL2 was below 2000 nM in each case.

Turning to `N#Cc1cccc(S(=O)(=O)C/C(=C/F)CN)c1` [Compound 2, (E)-3-((2-(aminomethyl)-3-fluoroallyl)sulfonyl)benzonitrile], the IC50 on Bovine LOX and at LOXL2 was below 2000 nM throughout.

For the compound `NC/C(=C\F)CS(=O)(=O)c1ccc2ccccc2c1` [Compound 22, (E)-3-fluoro-2-((naphthalen-2-ylsulfonyl)methyl)prop-2-en-1-amine], the IC50 at Bovine LOX and on LOXL2 was below 2000 nM each time. For the compound `NC/C(=C\F)CS(=O)(=O)c1cc(Cl)ccc1Cl` [Compound 32, (E)-2-(((2,5-dichlorophenyl)sulfonyl)methyl)-3-fluoroprop-2-en-1-amine], the IC50 on Bovine LOX and at LOXL2 was below 2000 nM throughout.

`Cc1ccccc1S(=O)(=O)C/C(=C/F)CN` [Compound 3, (E)-3-fluoro-2-((o-tolylsulfonyl)methyl)prop-2-en-1-amine]: the IC50 is below 5000 nM at Bovine LOX and below 2000 nM at LOXL2. With `N#Cc1ccccc1S(=O)(=O)C/C(=C/F)CN` [Compound 12, (E)-2-((2-(aminomethyl)-3-fluoroallyl)sulfonyl)benzonitrile], the IC50 at Bovine LOX and on LOXL2 was below 5000 nM each time. With `Cc1cccc(S(=O)(=O)C/C(=C/F)CN)c1` [Compound 20, (E)-3-fluoro-2-((m-tolylsulfonyl)methyl)prop-2-en-1-amine], the IC50 against Bovine LOX and at LOXL2 was below 2000 nM throughout. Turning to `NC/C(=C\F)CS(=O)(=O)c1ccc2c(c1)OCCO2` [Compound 25, (E)-2-(((2,3-dihydrobenzo[b][1,4]dioxin-6-yl)sulfonyl)methyl)-3-fluoroprop-2-en-1-amine], the IC50 at Bovine LOX and at LOXL2 was below 2000 nM throughout. With `CS(=O)(=O)c1cccc(Oc2ccccc2S(=O)(=O)C/C(=C/F)CN)c1` [Compound 35, (E)-3-fluoro-2-(((2-(3-(methylsulfonyl)phenoxy)phenyl)sulfonyl)methyl)prop-2-en-1-amine], the IC50 at Bovine LOX is below 5000 nM; on LOXL2, below 2000 nM. In the same order, the values of `CS(=O)(=O)c1cccc(S(=O)(=O)C/C(=C/F)CN)c1` [Compound 23, (E)-3-fluoro-2-(((3-(methylsulfonyl)phenyl)sulfonyl)methyl)prop-2-en-1-amine] are below 2000 nM and below 2000 nM. For `N#Cc1ccc(S(=O)(=O)C/C(=C/F)CN)cc1` [Compound 28, (E)-4-((2-(aminomethyl)-3-fluoroallyl)sulfonyl)benzonitrile] the same measures were below 5000 nM and below 2000 nM. For `NC/C(=C\F)CS(=O)(=O)c1cccc(S(=O)(=O)c2ccccc2)c1` [Compound 14, (E)-3-fluoro-2-(((3-(phenylsulfonyl)phenyl)sulfonyl)methyl)prop-2-en-1-amine] the same measures were below 2000 nM and below 2000 nM. Take `NC/C(=C\F)CS(=O)(=O)c1ccc(C(=O)O)cc1` [Compound 31, (E)-4-((2-(aminomethyl)-3-fluoroallyl)sulfonyl)benzoic acid]: the IC50 against Bovine LOX and on LOXL2 was below 10000 nM throughout. For the compound `NC/C(=C\F)CS(=O)(=O)c1cccc(-n2nccn2)c1` [Compound 34, (E)-2-(((3-(2H-1,2,3-triazol-2-yl)phenyl)sulfonyl)methyl)-3-fluoroprop-2-en-1-amine], the IC50 on Bovine LOX is below 5000 nM. Regarding `NC/C(=C\F)CS(=O)(=O)c1cccc(C(=O)O)c1` [Compound 26, (E)-3-((2-(aminomethyl)-3-fluoroallyl)sulfonyl)benzoic acid], the IC50 on Bovine LOX was below 10000 nM; at LOXL2, below 5000 nM.
